# From PMC4004800, “Preclinical evaluation of marketed sodium channel blockers in a rat model of myotonia discloses promising antimyotonic drugs” (Experimental Neurology, 2014)
# Where two headings read alike, the source gives them in different places.
# Target: T1, hNav1.4 (human skeletal muscle sodium channel) (Homo sapiens, UniProt P35499)
# T1 construct: gene SCN4A; alpha subunit permanently transfected in HEK293 cells; no beta subunit mentioned
# Assay: whole-cell patch clamp, sodium current in HEK293
# Assay type: cell-based
# Conditions: read-out: IC50 (μM) / 50 Hz, hp - 90 mV
# Source text: whole-cell patch clamp, sodium current in HEK293 on hNav1.4 (human skeletal muscle sodium channel)
# T1 sequence (P35499 whole entry): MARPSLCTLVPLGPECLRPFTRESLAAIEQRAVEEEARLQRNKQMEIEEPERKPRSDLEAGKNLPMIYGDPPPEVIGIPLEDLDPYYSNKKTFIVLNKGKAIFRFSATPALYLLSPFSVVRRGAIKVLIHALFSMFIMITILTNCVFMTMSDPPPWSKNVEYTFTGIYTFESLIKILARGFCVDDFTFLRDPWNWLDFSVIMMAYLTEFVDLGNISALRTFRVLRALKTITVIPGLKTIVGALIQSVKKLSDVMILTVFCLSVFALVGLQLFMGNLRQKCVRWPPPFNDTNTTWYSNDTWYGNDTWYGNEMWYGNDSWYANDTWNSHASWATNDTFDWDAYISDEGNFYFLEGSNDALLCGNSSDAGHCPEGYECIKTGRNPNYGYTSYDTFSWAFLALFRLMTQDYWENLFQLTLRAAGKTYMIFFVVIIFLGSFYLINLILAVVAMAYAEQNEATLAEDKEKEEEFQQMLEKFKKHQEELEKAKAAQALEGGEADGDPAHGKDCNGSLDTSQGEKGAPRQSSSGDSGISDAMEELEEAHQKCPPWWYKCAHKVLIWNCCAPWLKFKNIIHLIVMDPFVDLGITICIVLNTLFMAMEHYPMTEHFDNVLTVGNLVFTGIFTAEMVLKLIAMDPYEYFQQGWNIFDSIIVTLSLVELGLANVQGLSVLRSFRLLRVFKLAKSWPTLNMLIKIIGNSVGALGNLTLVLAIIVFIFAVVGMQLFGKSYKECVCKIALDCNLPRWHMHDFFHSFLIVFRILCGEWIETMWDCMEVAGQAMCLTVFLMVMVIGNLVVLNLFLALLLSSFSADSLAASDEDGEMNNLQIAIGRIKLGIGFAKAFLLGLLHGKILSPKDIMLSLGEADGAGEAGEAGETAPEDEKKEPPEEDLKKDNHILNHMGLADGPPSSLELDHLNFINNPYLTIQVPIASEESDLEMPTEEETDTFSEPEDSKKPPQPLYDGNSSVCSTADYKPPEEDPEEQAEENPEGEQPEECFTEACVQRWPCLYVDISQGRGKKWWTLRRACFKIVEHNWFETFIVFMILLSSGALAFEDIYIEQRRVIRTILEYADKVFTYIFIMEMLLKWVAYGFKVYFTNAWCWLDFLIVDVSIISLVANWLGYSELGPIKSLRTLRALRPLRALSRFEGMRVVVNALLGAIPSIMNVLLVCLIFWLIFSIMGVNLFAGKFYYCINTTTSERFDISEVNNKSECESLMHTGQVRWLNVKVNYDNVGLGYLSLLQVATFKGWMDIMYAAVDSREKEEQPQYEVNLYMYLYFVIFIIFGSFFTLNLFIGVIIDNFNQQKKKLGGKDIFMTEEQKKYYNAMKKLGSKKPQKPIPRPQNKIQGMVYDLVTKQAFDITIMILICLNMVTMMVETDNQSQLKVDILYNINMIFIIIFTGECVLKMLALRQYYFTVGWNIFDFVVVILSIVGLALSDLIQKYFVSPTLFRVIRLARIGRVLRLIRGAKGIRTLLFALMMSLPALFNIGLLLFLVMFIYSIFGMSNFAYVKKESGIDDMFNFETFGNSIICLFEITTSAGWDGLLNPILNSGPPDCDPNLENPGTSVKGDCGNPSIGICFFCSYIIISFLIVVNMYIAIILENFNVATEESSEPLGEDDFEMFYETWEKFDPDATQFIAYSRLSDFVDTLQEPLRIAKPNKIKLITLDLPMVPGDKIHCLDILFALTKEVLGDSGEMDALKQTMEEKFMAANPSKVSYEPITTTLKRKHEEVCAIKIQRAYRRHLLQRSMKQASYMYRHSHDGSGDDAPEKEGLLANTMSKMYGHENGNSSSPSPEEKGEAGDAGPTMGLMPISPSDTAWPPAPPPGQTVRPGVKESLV
Compound,"IC50 (holding potential -90 mV, 5 ms pulses to -30 mV at 50 Hz (myotonia-like), tonic + use-dependent block, read by eye from curve, 20-22 °C, pH 7.4) [µM]",IC50 [µM]
Lubeluzole,~0.3,–
NC(=O)N1c2ccccc2C2OC2c2ccccc21 (stereo not shown) [epo-CBZ],–,~70
O=C(NCC1CCCCN1)c1cc(OCC(F)(F)F)ccc1OCC(F)(F)F (stereo not shown) [Flecainide],–,~4
NC(=O)N1c2ccccc2C=Cc2ccccc21 [Carbamazepine],–,~100
CCCNCC(O)COc1ccccc1C(=O)CCc1ccccc1 (stereo not shown) [Propafenone],–,~1.5
Cc1cccc(C)c1OCC(C)N (stereo not shown) [Mexiletine],–,~20
Nc1nc2ccc(OC(F)(F)F)cc2s1 [Riluzole],–,~0.9
